Measured values taken from PubChem BioAssay (NCI).
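Following 48 hours of exposure in 96-well plates, responses at five concentrations were used to interpolate endpoints linearly. TGI marks complete inhibition of growth.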

Experiments:
Assay in all cases: DTP human tumour cell line panel, 48 h
[1] = tested on: SF-268 CNS
[2] = tested on: COLO 205 colon
[3] = tested on: SK-OV-3 ovarian
[4] = tested on: BT-549 breast
[5] = tested on: SF-539 CNS
[6] = tested on: MDA-N
[7] = tested on: UO-31 renal
[8] = tested on: CCRF-CEM leukemia
[9] = tested on: HCC-2998 colon
[10] = tested on: NCI-H226 lung

In the case of `CCCCN1C(=O)CS/C1=N/Nc1nc2c([nH]1)c(=O)n(C)c(=O)n2C`, the TGI [1] is reported as > 100 µM, the TGI [2] is reported as > 100 µM and the TGI [3] is reported as > 100 µM. For the same compound, the TGI [4] was > 100 µM, the TGI [5] was > 100 µM and the TGI [6] was 36.6 µM. The TGI [7] was > 100 µM, the TGI [8] was 54.8 µM and the TGI [9] was > 100 µM. For the same compound, the TGI [10] was > 100 µM.

Work on `C/C(=C1\C(=O)C(c2ccccc2)N(c2ccccc2)C1=O)c1ccc(Cl)cc1` (stereo not given) yielded a TGI [1] of 47 µM, a TGI [2] of 32.8 µM and a TGI [3] of 30.8 µM. For the same compound, the TGI [4] was 49.2 µM, the TGI [5] was 48.9 µM and the TGI [6] was 48 µM. It also gave a TGI [7] of 45.8 µM, a TGI [9] of 96.1 µM and a TGI [10] of 43 µM.

With `CCOC(=O)c1cn2c(ccc3sc4ccccc4c(=O)c32)n1` the TGI [1] was > 100 µM, the TGI [2] was > 100 µM and the TGI [4] was > 100 µM. For the same compound, the TGI [5] was > 100 µM, the TGI [6] was > 100 µM and the TGI [7] was > 100 µM. For the same compound, the TGI [8] was > 100 µM, the TGI [9] was > 100 µM and the TGI [10] was > 100 µM.

With `Cc1nc2ccccc2n1Cc1nnc2n1N=C(c1ccccc1)CS2` the TGI [1] was > 100 µM, the TGI [2] was > 100 µM and the TGI [3] was > 100 µM. The TGI [4] was 80.8 µM, the TGI [5] was > 100 µM and the TGI [6] was > 100 µM. The TGI [7] was > 100 µM, the TGI [8] was > 100 µM and the TGI [9] was 68.1 µM. For the same compound, the TGI [10] was > 100 µM.

In the case of `NC(=O)C1CCCN1C(=O)N(CCCl)N=O` (stereo not given), the TGI [1] is reported as > 100 µM, the TGI [2] is reported as > 100 µM and the TGI [3] is reported as > 100 µM. For the same compound, the TGI [4] was > 100 µM, the TGI [5] was > 100 µM and the TGI [6] was > 100 µM. The TGI [7] was > 100 µM, the TGI [8] was > 100 µM and the TGI [9] was > 100 µM. For the same compound, the TGI [10] was > 100 µM.

With `Nc1[nH]c(=S)c2c(N)n[nH]c2c1C(=O)Nc1ccc(Cl)cc1` the TGI [1] was > 100 µM, the TGI [2] was > 100 µM and the TGI [3] was > 100 µM. The TGI [4] was > 100 µM, the TGI [5] was > 100 µM and the TGI [6] was > 100 µM. The TGI [7] was > 100 µM, the TGI [9] was > 100 µM and the TGI [10] was > 100 µM.

For `COc1cccc(C=C2N=C(C)N(n3c(-c4ccccc4)nc4ccccc4c3=O)C2=O)c1`, the TGI [1] was > 100 µM, the TGI [2] was > 100 µM and the TGI [3] was > 100 µM. For the same compound, the TGI [4] was > 100 µM, the TGI [5] was > 100 µM and the TGI [6] was > 100 µM. For the same compound, the TGI [7] was > 100 µM, the TGI [8] was > 100 µM and the TGI [9] was > 100 µM. The TGI [10] was > 100 µM.

`CC(=O)c1ccccc1NS(=O)(=O)c1ccc2nc(C)n(NS(=O)(=O)c3ccccc3C(C)=O)c(=O)c2c1` was tested, and the TGI [1] was > 100 µM, the TGI [2] was > 100 µM and the TGI [3] was > 100 µM. For the same compound, the TGI [4] was > 100 µM, the TGI [5] was > 100 µM and the TGI [6] was > 100 µM. The TGI [7] was > 100 µM, the TGI [8] was > 100 µM and the TGI [9] was > 100 µM. For the same compound, the TGI [10] was > 100 µM.

With `COc1ccc(-c2cc(-c3ccccc3)nc3c2CC(=O)Nc2ccccc2-3)cc1OC` the TGI [1] was > 100 µM, the TGI [2] was > 100 µM and the TGI [3] was > 92.6 µM. For the same compound, the TGI [4] was > 100 µM, the TGI [5] was > 46.1 µM and the TGI [6] was > 100 µM. The TGI [7] was > 100 µM, the TGI [8] was > 100 µM and the TGI [9] was > 100 µM. The TGI [10] was > 100 µM.

In the case of `CCn1c(=O)c2c3cc(OC(C)=O)ccc3oc2c2ccc(OC(C)=O)cc21`, the TGI [1] is reported as > 100 µM, the TGI [2] is reported as 55.6 µM and the TGI [3] is reported as > 100 µM. The TGI [4] was > 100 µM, the TGI [5] was 94.3 µM and the TGI [6] was > 100 µM. The TGI [7] was 83 µM, the TGI [8] was > 100 µM and the TGI [9] was 58.2 µM. For the same compound, the TGI [10] was > 100 µM.

`NC(=S)N/N=C1\CCCCC1C(O)(C(F)(F)Cl)C(F)(F)Cl` (stereo not given) was tested, and the TGI [1] was > 10 µM, the TGI [2] was > 10 µM and the TGI [3] was > 10 µM. The TGI [4] was > 10 µM, the TGI [5] was > 10 µM and the TGI [6] was > 10 µM. For the same compound, the TGI [8] was > 10 µM, the TGI [9] was > 10 µM and the TGI [10] was > 10 µM.

`CCOC(=O)C1=C(C)NC(C)=C(C(=O)OCC)C1c1ccc(C)cc1` was tested, and the TGI [1] was > 100 µM, the TGI [3] was > 100 µM and the TGI [4] was > 100 µM. For the same compound, the TGI [5] was 91.4 µM, the TGI [6] was > 100 µM and the TGI [7] was > 100 µM. For the same compound, the TGI [9] was > 100 µM and the TGI [10] was > 100 µM.

In the case of `CCOP(C)(=O)/C(Cc1ccc(OC)c(OC)c1)=N\O` (stereo not given), the TGI [2] is reported as > 100 µM, the TGI [3] is reported as > 100 µM and the TGI [4] is reported as > 100 µM. The TGI [5] was > 100 µM, the TGI [6] was > 100 µM and the TGI [7] was > 100 µM. For the same compound, the TGI [8] was > 100 µM, the TGI [9] was > 100 µM and the TGI [10] was > 100 µM.

For `CNc1nc2c(C)ccc3[nH]c(N(C)C)nc3c-2n1`, the TGI [1] was > 100 µM, the TGI [2] was > 100 µM and the TGI [3] was > 100 µM. The TGI [4] was > 100 µM, the TGI [5] was 64.5 µM and the TGI [6] was > 100 µM. The TGI [7] was > 100 µM, the TGI [8] was > 100 µM and the TGI [9] was > 100 µM. The TGI [10] was > 100 µM.

Compound `O[C@H]1[C@H](O)[C@@H](Cn2nnc(-c3ccccc3)c2-c2ccccc2)OCO[C@@H]1Cn1nnc(-c2ccccc2)c1-c1ccccc1` has a TGI [1] of 25 µM, a TGI [2] of 12.2 µM and a TGI [3] of 27.2 µM. The TGI [4] was 23.7 µM, the TGI [5] was 10.8 µM and the TGI [6] was 9.97 µM. For the same compound, the TGI [7] was 17 µM, the TGI [8] was > 34.5 µM and the TGI [9] was 6.31 µM. For the same compound, the TGI [10] was > 45.4 µM.

`NC(N)=NS(=O)(=O)c1ccc(NC(=O)c2ccc3nc4ccccc4c(N)c3c2)cc1` was tested, and the TGI [1] was > 100 µM, the TGI [2] was > 100 µM and the TGI [3] was > 100 µM. For the same compound, the TGI [4] was > 100 µM, the TGI [5] was > 100 µM and the TGI [6] was > 100 µM. The TGI [7] was > 100 µM, the TGI [8] was > 100 µM and the TGI [9] was > 100 µM. For the same compound, the TGI [10] was > 100 µM.

With `COc1ccc(/C=C2\CN(C)CC3C2=NN(c2ccccc2)C3c2ccc(OC)cc2)cc1` (stereo not given) the TGI [1] was > 100 µM, the TGI [2] was > 100 µM and the TGI [3] was 55.1 µM. The TGI [4] was > 100 µM, the TGI [6] was > 100 µM and the TGI [7] was > 100 µM. For the same compound, the TGI [8] was > 100 µM, the TGI [9] was > 100 µM and the TGI [10] was > 100 µM.

With `CSc1ccc2c(cc1=O)[C@@H](NC(=O)c1ccc([N+](=O)[O-])cc1)CCc1cc(O)c(O)c(O)c1-2` the TGI [1] was > 100 µM, the TGI [2] was 53.7 µM and the TGI [3] was > 100 µM. The TGI [4] was > 100 µM, the TGI [5] was > 100 µM and the TGI [6] was 67.4 µM. For the same compound, the TGI [7] was > 100 µM, the TGI [8] was > 100 µM and the TGI [9] was > 100 µM. For the same compound, the TGI [10] was > 100 µM.

In the case of `CC(C)(O)CCc1ccc(O)c2c(=O)c3c(O)c4c(cc3oc12)O[C@H]1OC=C[C@@]41O`, the TGI [1] is reported as 8.54 µM, the TGI [2] is reported as 0.378 µM and the TGI [3] is reported as 13.2 µM. The TGI [4] was > 62.5 µM, the TGI [5] was 6.76 µM and the TGI [6] was 0.0142 µM. For the same compound, the TGI [7] was 0.414 µM, the TGI [8] was > 100 µM and the TGI [9] was < 0.0176 µM. For the same compound, the TGI [10] was 0.162 µM.

In the case of `NC(=O)C1N=NSC1NC(=O)c1ccc([N+](=O)[O-])cc1` (stereo not given), the TGI [1] is reported as > 100 µM, the TGI [2] is reported as > 100 µM and the TGI [3] is reported as > 100 µM. For the same compound, the TGI [4] was > 100 µM, the TGI [6] was > 100 µM and the TGI [7] was > 100 µM. For the same compound, the TGI [8] was > 100 µM, the TGI [9] was > 100 µM and the TGI [10] was > 100 µM.

With `Cc1ccc(S(=O)(=O)N2CCCSCCN(S(=O)(=O)c3ccc(C)cc3)CCCSCC2)cc1` the TGI [1] was > 100 µM, the TGI [2] was > 100 µM and the TGI [3] was > 100 µM. The TGI [4] was > 100 µM, the TGI [5] was > 100 µM and the TGI [6] was > 100 µM. For the same compound, the TGI [7] was > 100 µM, the TGI [9] was > 100 µM and the TGI [10] was > 100 µM.
